Experimental data: ChEMBL document CHEMBL1201862, “PubChem BioAssay data set” (2004)
Calls of active or inactive are those of the source.

Legend:
[1] = biological target: G-protein coupled receptor 183 (Homo sapiens, UniProt P32249); experiment: SAR confirmation of small molecule antagonists of the EBI2 receptor via a luminescent beta-arrestin assa.; type: functional
[2] = Dose-response inhibition of insulin secretion in a rat insulinoma line at 5 mM glucose (AID 1117331); type: functional, cell-based; settings: INS-1E
[3] = biological target: Voltage-gated inwardly rectifying potassium channel KCNH2 (Homo sapiens, UniProt Q12809); experiment: hERG protection from proarrhythmic block, potency, dose response, cell-based, thallium flux (AID 2121); type: ADME
Sequence of Voltage-gated inwardly rectifying potassium channel KCNH2 (Q12809 whole entry): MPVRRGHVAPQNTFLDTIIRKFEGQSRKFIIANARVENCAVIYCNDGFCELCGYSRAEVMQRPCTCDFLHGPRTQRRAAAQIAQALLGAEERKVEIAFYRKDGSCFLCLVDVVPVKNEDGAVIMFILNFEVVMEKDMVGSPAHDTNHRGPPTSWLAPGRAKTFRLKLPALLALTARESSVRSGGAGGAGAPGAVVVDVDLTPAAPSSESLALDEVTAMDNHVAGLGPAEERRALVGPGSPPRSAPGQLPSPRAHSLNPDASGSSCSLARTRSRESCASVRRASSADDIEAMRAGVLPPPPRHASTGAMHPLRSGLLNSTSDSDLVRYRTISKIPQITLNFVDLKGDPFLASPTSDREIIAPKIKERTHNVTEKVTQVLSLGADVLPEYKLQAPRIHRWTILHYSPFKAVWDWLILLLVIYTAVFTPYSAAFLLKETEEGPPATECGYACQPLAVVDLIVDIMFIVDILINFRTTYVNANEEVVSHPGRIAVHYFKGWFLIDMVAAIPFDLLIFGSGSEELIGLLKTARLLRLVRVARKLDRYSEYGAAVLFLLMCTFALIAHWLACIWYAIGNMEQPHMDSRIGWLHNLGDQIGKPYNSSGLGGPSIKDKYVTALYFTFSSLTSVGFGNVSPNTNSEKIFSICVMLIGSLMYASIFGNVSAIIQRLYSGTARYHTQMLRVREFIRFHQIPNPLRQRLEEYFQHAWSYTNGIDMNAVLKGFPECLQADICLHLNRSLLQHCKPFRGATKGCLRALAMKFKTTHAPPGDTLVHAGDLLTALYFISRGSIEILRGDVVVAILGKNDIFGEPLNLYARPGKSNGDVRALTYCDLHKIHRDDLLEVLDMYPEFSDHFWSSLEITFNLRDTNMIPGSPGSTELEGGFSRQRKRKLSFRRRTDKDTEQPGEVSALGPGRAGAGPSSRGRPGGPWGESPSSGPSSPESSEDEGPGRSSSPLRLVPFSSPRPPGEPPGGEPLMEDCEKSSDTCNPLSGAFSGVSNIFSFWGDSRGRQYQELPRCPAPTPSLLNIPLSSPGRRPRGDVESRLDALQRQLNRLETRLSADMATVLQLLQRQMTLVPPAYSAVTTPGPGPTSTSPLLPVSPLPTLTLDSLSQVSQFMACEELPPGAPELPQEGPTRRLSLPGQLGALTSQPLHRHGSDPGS

[4] = biological target: T1, 5-hydroxytryptamine receptor 1A (Homo sapiens, UniProt P08908); type: functional
T1 sequence (P08908 whole entry): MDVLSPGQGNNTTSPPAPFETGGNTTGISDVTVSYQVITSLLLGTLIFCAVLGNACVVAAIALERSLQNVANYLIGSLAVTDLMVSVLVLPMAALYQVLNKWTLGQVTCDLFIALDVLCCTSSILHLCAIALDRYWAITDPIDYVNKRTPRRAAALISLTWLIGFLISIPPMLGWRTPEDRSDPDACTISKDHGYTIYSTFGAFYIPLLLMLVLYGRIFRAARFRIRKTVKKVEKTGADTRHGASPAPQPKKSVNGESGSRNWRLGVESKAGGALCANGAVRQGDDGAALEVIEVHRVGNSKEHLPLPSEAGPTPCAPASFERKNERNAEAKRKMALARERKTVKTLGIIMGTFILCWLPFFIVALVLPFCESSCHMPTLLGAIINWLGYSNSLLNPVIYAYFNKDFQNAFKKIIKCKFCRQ

[5] = biological target: Ephrin type-A receptor 4 (Mus musculus, UniProt Q03137); experiment: inhibitors of EphA4 binding to KYL peptide, primary screen, biochemical, colorimetric, mouse EphA4 (AID 689); type: functional
Sequence of Ephrin type-A receptor 4 (Q03137 whole entry): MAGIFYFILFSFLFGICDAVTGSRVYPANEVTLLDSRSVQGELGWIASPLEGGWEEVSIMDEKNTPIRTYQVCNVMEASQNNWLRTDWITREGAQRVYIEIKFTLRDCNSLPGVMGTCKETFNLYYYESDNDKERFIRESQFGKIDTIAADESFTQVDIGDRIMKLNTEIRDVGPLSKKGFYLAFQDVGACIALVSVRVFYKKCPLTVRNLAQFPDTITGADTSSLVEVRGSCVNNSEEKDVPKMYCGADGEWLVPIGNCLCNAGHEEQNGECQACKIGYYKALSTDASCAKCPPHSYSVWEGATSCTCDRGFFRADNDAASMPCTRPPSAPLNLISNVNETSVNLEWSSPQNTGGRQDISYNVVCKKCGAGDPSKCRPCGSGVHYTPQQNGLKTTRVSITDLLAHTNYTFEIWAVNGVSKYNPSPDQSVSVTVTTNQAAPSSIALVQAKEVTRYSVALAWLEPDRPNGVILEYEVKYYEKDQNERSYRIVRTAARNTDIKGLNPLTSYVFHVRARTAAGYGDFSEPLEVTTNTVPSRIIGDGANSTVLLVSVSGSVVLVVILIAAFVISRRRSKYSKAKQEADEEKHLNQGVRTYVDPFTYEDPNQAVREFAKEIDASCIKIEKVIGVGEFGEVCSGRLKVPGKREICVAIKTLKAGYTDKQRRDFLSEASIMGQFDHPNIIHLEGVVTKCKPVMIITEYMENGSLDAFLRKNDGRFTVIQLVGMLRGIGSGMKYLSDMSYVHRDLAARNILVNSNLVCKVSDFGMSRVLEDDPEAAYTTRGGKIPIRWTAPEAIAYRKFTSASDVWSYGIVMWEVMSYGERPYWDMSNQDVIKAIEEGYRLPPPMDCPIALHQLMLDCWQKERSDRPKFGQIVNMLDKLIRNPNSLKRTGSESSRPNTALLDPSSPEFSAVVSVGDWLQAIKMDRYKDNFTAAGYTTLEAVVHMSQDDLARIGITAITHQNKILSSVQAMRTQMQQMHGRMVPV

[6] = inhibitors of intracellular T. cruzi replication, confirmation, NIH3T3 host cells, beta-gal luminescence (AID 2044); type: functional, cell-based;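 also: intracellular parasites grown in NIH/3T3 mouse fibroblasts as host cells; luminescent beta-galactosidase reporter signal from transgenic T. cruzi replicating inside host cells; inhibitors lower the luminescence signal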
[7] = cytotoxicity toward NIH3T3 fibroblasts, dose response, counter-screen, cell-based, ATP luminescence, mouse fibroblasts (AID 2010); type: functional;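 also: cells exposed to compound for about 90 hours before reading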
[8] = Luminescence Cell-Based Dose Retest to Confirm Inhibitors of Cancer Stem Cells. [Related pubchem assays (depositor defined):AID2717, AID2721]; type: functional; settings: Homo sapiens
[9] = biological target: Kallikrein-7 (Homo sapiens, UniProt P49862); experiment: Fluorescence Intensity-based biochemical primary high throughput dose response assay to identify activators of kallikrein-7 (K7) zymogen.
Sequence of Kallikrein-7 (P49862 whole entry, the tested form may be a part): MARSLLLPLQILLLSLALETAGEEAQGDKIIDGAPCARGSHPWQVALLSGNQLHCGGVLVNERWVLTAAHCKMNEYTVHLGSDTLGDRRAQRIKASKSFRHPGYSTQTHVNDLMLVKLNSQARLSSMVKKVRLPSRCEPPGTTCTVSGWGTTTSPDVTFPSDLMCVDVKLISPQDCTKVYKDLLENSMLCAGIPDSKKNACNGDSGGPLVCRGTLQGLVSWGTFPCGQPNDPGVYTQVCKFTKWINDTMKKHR

[10] = biological target: T2, RNA-binding protein pos-1 (Caenorhabditis elegans, UniProt G5EF15); experiment: inhibitors of POS-1/mex-3 RNA binding, dose response, biochemical, fluorescence polarization (AID 1964);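 also: purified POS-1 fused to maltose binding protein made in E. coli; potency of compounds blocking POS-1 binding to fluorescent RNA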
T2 sequence (G5EF15 whole entry): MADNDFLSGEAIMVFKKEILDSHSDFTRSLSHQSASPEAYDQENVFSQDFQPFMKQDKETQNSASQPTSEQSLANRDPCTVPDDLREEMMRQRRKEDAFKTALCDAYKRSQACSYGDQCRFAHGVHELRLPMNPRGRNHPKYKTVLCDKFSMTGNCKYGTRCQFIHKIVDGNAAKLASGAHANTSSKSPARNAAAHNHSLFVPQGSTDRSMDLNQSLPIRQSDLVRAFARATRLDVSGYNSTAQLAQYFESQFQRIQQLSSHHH

[11] = biological target: T3, Zinc finger protein mex-5 (Caenorhabditis elegans, UniProt Q9XUB2); experiment: MEX-5/TCR-2 RNA interaction inhibitors, dose response, biochemical, C. elegans, fluorescence polarization (AID 1960)
T3 sequence (Q9XUB2 whole entry): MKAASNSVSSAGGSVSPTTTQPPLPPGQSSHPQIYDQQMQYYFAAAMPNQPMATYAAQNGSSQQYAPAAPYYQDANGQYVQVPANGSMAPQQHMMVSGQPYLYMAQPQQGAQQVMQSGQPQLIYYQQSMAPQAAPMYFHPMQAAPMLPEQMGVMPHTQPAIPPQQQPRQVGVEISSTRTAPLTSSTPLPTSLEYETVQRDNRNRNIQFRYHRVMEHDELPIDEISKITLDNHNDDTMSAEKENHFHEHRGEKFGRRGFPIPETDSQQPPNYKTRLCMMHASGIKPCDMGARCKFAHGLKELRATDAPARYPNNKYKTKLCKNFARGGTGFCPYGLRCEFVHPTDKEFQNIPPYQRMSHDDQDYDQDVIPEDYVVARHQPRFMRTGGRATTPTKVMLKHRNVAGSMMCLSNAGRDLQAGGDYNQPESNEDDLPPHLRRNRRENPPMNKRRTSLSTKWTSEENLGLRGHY

[12] = biological target: T4, Bifunctional protein GlmU (Mycobacterium tuberculosis, UniProt P9WMN3); experiment: Inhibitors of Mycobacterial Glucosamine-1-phosphate acetyl transferase (GlmU). Secondary screen.; design: species or system Mycobacterium tuberculosis H37Rv
T4 sequence (P9WMN3 whole entry): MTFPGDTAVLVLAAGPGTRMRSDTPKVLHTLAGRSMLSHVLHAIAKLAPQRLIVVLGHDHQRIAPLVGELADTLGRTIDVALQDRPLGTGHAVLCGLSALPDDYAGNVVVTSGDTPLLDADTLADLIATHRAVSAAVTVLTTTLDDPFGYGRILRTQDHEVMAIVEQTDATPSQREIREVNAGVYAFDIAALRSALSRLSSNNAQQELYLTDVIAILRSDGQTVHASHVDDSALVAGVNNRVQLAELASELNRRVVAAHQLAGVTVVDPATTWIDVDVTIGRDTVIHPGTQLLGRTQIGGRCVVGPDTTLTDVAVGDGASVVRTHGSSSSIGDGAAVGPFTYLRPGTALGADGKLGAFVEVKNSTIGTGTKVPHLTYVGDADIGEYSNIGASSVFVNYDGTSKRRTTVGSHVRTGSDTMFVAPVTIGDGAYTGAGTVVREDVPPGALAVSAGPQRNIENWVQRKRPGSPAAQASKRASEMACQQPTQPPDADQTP

[13] = biological target: DNA dC->dU-editing enzyme APOBEC-3A (Homo sapiens, UniProt P31941); experiment: Dose Response confirmation of small molecule APOBEC3A DNA Deaminase Inhibitors via a fluorescence-based single-stranded DNA deaminase assay. [Related pubchem assays (depositor defined):AID493011, AID493024]; type: functional
Sequence of DNA dC->dU-editing enzyme APOBEC-3A (P31941 whole entry): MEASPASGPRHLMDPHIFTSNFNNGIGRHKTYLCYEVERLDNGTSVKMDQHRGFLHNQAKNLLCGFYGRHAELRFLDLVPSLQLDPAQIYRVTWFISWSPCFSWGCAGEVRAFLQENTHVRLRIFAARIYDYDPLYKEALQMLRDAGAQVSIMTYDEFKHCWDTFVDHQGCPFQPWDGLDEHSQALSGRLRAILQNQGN

[14] = biological target: DNA dC->dU-editing enzyme APOBEC-3G (Homo sapiens, UniProt Q9HC16); type: functional;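 also: Dose-response counterscreen measuring inhibition of APOBEC3G DNA deaminase activity, run while confirming APOBEC3A inhibitors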
Sequence of DNA dC->dU-editing enzyme APOBEC-3G (Q9HC16 whole entry): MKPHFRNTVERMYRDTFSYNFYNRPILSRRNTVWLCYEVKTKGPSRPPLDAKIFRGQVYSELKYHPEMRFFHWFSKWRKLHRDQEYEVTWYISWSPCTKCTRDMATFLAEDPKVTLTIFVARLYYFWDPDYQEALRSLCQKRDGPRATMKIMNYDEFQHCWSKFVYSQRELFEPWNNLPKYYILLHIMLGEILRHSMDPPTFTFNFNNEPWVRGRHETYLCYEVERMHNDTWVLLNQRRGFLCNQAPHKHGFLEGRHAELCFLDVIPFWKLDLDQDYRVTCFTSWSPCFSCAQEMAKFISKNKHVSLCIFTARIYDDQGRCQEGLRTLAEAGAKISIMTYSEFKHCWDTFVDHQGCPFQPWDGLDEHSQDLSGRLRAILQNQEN

[15] = biological target: T5, 14-3-3 protein gamma (Homo sapiens, UniProt P61981); experiment: modulators of 14-3-3 gamma client binding – dose response (AID 711); type: functional
T5 sequence (P61981 whole entry): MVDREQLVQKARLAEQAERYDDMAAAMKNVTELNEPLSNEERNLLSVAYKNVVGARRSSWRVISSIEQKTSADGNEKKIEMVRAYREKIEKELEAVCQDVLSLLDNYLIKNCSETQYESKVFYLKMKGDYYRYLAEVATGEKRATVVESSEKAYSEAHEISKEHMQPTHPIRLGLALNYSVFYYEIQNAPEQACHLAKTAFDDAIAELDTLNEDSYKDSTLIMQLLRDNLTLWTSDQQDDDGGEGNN

[16] = biological target: T6, ORF 73 (Human herpesvirus 8, UniProt O40947); experiment: inhibitors of C-LANA binding to LBS DNA, dose response, biochemical, fluorescence polarization, cherry-picked samples (AID 504725); design: species or system Human gammaherpesvirus 8;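 also: fluorescence polarization of a labeled DNA duplex reporting LANA DNA binding; potency is for inhibitors that block LANA binding to the DNA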
T6 sequence (O40947 whole entry): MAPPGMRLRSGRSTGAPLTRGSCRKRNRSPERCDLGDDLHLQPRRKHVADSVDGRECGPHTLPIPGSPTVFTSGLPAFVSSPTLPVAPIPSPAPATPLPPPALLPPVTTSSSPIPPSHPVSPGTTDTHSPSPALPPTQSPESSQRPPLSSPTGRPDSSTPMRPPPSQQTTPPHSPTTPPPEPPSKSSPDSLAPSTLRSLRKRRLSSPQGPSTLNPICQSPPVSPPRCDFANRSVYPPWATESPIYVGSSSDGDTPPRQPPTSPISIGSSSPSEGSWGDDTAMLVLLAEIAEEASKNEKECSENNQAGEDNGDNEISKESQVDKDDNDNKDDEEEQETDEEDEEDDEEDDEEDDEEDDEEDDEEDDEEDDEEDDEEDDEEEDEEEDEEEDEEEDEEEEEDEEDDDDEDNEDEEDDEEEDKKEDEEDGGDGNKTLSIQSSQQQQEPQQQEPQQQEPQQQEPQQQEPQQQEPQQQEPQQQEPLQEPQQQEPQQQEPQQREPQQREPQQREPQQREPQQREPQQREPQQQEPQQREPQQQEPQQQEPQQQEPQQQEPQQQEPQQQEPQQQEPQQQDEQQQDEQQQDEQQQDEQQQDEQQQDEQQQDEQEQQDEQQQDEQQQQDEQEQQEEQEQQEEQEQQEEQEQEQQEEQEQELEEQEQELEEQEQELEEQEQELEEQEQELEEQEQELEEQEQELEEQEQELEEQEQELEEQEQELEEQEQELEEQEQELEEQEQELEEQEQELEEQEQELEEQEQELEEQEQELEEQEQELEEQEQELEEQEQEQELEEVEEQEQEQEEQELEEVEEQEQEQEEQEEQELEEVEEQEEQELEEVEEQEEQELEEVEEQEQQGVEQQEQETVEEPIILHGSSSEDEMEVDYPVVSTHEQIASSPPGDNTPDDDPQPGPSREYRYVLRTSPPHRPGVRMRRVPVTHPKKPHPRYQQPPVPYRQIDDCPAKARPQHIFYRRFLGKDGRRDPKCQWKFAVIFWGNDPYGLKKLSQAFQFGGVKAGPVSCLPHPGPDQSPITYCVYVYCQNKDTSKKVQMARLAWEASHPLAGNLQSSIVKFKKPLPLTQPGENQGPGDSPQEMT

[17] = biological target: DNA (cytosine-5)-methyltransferase 1 (Homo sapiens, UniProt P26358); experiment: DNMT1 methyltransferase inhibitors, confirmation, biochemical, fluorescent molecular beacon (AID 602386); type: functional
[18] = biological target: 26S proteasome non-ATPase regulatory subunit 14 (Homo sapiens, UniProt O00487); experiment: inhibition of proteasome subunit RPN11 – biochemical, fluorescence polarization, uHTS hits, confirmation (AID 602368); type: functional
Sequence of 26S proteasome non-ATPase regulatory subunit 14 (O00487 whole entry): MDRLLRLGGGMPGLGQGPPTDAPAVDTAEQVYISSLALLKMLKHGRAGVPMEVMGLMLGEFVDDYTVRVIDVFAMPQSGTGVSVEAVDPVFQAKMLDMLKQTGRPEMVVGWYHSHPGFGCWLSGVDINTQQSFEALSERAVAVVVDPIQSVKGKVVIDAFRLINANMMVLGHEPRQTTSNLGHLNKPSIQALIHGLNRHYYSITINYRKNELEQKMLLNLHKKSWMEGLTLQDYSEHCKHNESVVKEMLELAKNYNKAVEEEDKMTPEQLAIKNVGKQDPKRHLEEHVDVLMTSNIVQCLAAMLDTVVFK

[19] = biological target: 72 kDa type IV collagenase (Homo sapiens, UniProt P08253); experiment: Dose Response validation of uHTS RPN11 inhibitor hits using a MMP-2 Fluorescence assay.; type: functional
Sequence of 72 kDa type IV collagenase (P08253 whole entry): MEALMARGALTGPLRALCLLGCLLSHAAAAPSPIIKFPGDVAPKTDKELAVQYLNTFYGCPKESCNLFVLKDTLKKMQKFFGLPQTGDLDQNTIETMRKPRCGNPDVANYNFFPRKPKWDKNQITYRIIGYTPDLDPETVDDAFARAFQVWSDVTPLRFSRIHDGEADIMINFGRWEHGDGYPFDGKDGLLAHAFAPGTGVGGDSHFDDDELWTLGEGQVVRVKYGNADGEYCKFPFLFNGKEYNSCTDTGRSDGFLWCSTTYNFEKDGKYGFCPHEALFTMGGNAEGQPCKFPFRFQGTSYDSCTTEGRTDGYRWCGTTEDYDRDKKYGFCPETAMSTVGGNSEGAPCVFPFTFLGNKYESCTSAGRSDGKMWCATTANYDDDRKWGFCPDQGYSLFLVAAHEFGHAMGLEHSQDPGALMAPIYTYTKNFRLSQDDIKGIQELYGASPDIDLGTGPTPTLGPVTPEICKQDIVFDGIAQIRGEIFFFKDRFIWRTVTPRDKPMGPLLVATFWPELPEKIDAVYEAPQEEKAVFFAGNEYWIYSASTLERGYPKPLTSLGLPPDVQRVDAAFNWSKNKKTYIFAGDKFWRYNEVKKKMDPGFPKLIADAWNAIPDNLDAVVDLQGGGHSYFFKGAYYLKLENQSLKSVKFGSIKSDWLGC

[20] = biological target: Prothrombin (Bos taurus, UniProt P00735); experiment: thrombin inhibition, dose response, biochemical, fluorescence polarization, uHTS hits (AID 602369); type: functional
[21] = HEp-2 cell cytotoxicity, dose response, cytotoxicity control for RSV inhibitor project, HTS (AID 2410); type: functional; settings: human respiratory syncytial virus
[22] = biological target: T7, High affinity choline transporter 1 (Homo sapiens, UniProt Q9GZV3); experiment: CHT inhibitors, dose response, cell-based, 5-point CRC, membrane potential dye (AID 504840); type: functional
T7 sequence (Q9GZV3 whole entry): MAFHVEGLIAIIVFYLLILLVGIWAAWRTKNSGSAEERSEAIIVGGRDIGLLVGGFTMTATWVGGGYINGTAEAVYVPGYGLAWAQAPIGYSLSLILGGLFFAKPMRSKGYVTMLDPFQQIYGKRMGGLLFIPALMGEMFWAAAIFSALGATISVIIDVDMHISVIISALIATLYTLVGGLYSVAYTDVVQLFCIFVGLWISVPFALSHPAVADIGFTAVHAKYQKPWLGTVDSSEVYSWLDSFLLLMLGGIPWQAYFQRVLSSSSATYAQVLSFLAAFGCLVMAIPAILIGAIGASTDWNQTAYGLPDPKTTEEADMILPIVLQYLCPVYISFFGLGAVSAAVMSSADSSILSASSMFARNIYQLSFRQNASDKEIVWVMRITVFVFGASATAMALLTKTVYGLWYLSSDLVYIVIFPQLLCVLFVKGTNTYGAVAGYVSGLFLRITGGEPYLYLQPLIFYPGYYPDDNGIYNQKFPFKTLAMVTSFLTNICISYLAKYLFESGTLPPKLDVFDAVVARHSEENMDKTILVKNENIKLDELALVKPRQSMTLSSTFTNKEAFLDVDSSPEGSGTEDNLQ

Sequence of G-protein coupled receptor 183 (P32249 whole entry): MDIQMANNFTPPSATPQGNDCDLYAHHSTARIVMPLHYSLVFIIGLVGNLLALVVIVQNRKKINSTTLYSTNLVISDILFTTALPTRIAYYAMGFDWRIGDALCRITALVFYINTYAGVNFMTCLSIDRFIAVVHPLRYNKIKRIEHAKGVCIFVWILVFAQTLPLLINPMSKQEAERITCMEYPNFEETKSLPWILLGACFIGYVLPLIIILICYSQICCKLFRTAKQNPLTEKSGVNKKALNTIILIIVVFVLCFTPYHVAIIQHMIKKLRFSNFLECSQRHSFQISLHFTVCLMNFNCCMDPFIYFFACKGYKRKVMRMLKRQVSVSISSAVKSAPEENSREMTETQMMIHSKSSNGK

SMILES: O=C(/C=C/c1ccc(Br)cc1)N1CCN(C(=O)c2ccc(Cl)cc2)CC1
- IC50 [1]: 0.000409 µM (active)

SMILES: CC(CCc1ccccc1)NC(C)C(O)c1ccc(O)cc1 (centres undefined) [NYLIDRIN]
- IC50 [2]: 14.5 µM (inactive)

SMILES: CCOC(=O)c1sc(NN=C(C(=O)OC)C(=O)OC)c(C(=O)OCC)c1C
- EC50 [3]: 0.21 µM (active)

SMILES: O=C(/C=C/c1ccc(F)cc1)N1CCN(S(=O)(=O)c2cc(Cl)ccc2Cl)CC1
- IC50 [1]: 0.0219 µM (active)

SMILES: O=C(Nc1cccc(-c2cn3ccsc3n2)c1)c1ccccc1
- EC50 [4]: > 50 µM (not active)

SMILES: Cc1nn(-c2ccccc2)c2c1C(c1cccnc1)N1C=C(S(=O)(=O)N3CCCCC3)C=CC1=N2 (centres undefined)
- IC50 [5]: > 100 µM (not active)

SMILES: Cc1cc(Nc2cccc(F)c2)nc(-c2ccccc2O)n1
- EC50 [6]: 4.15 µM (active)
- EC50 [7]: > 60 µM (not active)
- AC50 [8]: 3.68 µM (active)
- EC50 [9]: > 69.5 µM (inactive)

SMILES: CSc1nnc(SCc2nc3sc(C(=O)O)c(C)c3c(=O)[nH]2)s1
- EC50 [10]: 25.4 µM (active)
- EC50 [11]: 30.6 µM (active)
- IC50 [12]: 76.2 µM (active)
- IC50 [13]: 14 µM (active)
- IC50 [14]: 24.6 µM (active)

SMILES: CCOc1ccc(N2C(=O)NC(=O)/C(=C\NCCN3CCNCC3)C2=O)cc1
- IC50 [15]: > 50 µM (not active)

SMILES: COC(=O)c1ccccc1NC(=O)CCS(=O)(=O)c1ccc(Br)cc1
- IC50 [12]: 28.6 µM (active)
- AC50 [16]: 31.5 µM (active)
- IC50 [17]: 3.69 µM (active)
- IC50 [18]: 14 µM (active)
- IC50 [19]: 22.5 µM (active)
- IC50 [20]: > 100 µM (inactive)

SMILES: C/C(=C\C(=O)c1ccccc1)NNc1nc2ccccc2s1
- IC50 [5]: > 100 µM (not active)

SMILES: Cc1cccc(N2CCN(C(=O)Cc3c(C(=O)O)[nH]c4ccc(Cl)cc34)CC2)c1C
- CC50 [21]: 20.4 µM (active)
- EC50 [4]: > 50 µM (not active)
- IC50 [22]: 10.8 µM (active)

SMILES: CC(C)(C)c1ccc(S(=O)(=O)N2CCN(C(=O)/C=C/c3ccc(F)cc3)CC2)cc1
- IC50 [1]: 0.0124 µM (active)

SMILES: Cc1ccc(NC(=O)C2=CC(c3cccs3)=NS(=O)(=O)N2C)cc1
- EC50 [9]: 33.9 µM (inactive)

SMILES: COc1ccc(-n2ncc3c(N4CCCc5ccccc54)ncnc32)cc1
- IC50 [15]: > 50 µM (not active)
